The values that follow come from the supplement of paper PMC11208160.

The data set is described as follows: recombinant UMI read abundance after kanamycin selection (control-corrected) (log10(CPM+1)); higher = more efficient recombination; extreme values may be limits of the assay; sequences stand for … in AGTGCAGAGAAAATCGGCCAGTTTTCTCTGCCTGCAGTCCGCATGCCGTGGGACCCCTTGGGTTCTAACCTGTTGCCTAGATTTATGCAGCGGACTGCCTTTCTCCCAAAGTGATAAACCGG…AGGTTGGTTTCACT; site = the 11-nt donor. In outline: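 After plating on IPTG (0.07 mM) plus kanamycin, or unselected, in two replicates, recombinant UMIs were PCR-amplified across the donor–target junction and sequenced. The cells were Escherichia coli co-electroporated with a UMI-tagged donor and donor-binding-loop pair library and a target plasmid with a fixed target and T7-inducible IS621 bridge recombinase. Values are log10(CPM+1), with CPM averaged over replicates and scaled by control-derived factors.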
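Further: IS621 bridge recombinase in Escherichia coli cells against a fixed T5 target plasmid.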

For the sequence “CAAGATACATGGACCGGTTTTCCCGGTAATCCGTATTTGGT (site CAAGATACTAC)”, the “recombinant UMI read abundance (log10)” value was found to be 1.97. Then “CAAGCACCATGGACCGGTTTTCCCGGTAATCCGTATTTGTG (site CAAGCACCTCA)”, with 0.018; and “CAAGCACCATGGACCGGTTTTCCCGGTAATCCGTATTTGTG (site CAAGCCCCTCA)”, with 0.00553.

In the case of “CAAGCACCATGGACCGGTTTTCCCGGTAATCCGTATTTGTG (site CAAGCGCCTCA)”, the “recombinant UMI read abundance (log10)” value turned out to be 0.00843. On to “CAAGCACCATGGACCGGTTTTCCCGGTAATCCGTATTTGTG (site CAAGCTCCTCA)”, for which the “recombinant UMI read abundance (log10)” value amounted to 0. Regarding “CAAGCAGCATGGACCGGTTTTCCCGGTAATCCGTATTTGCA (site CAAGCAGCTAG)”, the “recombinant UMI read abundance (log10)” value was 1.22. Then “CAAGCAGCATGGACCGGTTTTCCCGGTAATCCGTATTTGCA (site CAAGCAGCTCG)”, with 1.43; and “CAAGCAGCATGGACCGGTTTTCCCGGTAATCCGTATTTGCA (site CAAGCAGCTGG)”, with 1.06; and “CAAGCAGCATGGACCGGTTTTCCCGGTAATCCGTATTTGCA (site CAAGCAGCTTG)”, with 2.81. “CAAGCAGCATGGACCGGTTTTCCCGGTAATCCGTATTTGGT (site CAAGCAGCTAA)”: the “recombinant UMI read abundance (log10)” value was 0.922. As for “CAAGCAGCATGGACCGGTTTTCCCGGTAATCCGTATTTGGT (site CAAGCAGCTAC)”, the “recombinant UMI read abundance (log10)” value was 1.73.

“CAAGCAGCATGGACCGGTTTTCCCGGTAATCCGTATTTGGT (site CAAGCAGCTAG)”: the “recombinant UMI read abundance (log10)” value is 1.5. As for “CAAGCAGCATGGACCGGTTTTCCCGGTAATCCGTATTTGGT (site CAAGCAGCTAT)”, the “recombinant UMI read abundance (log10)” value amounted to 1.85. Regarding “CAAGCGACATGGACCGGTTTTCCCGGTAATCCGTATTTGTG (site CAAGCGACTCA)”, the “recombinant UMI read abundance (log10)” value was 1.19.

For “CAAGCGACATGGACCGGTTTTCCCGGTAATCCGTATTTGTG (site CAAGCGCCTCA)”, the “recombinant UMI read abundance (log10)” value is 0.00397. Take “CAAGCGACATGGACCGGTTTTCCCGGTAATCCGTATTTGTG (site CAAGCGGCTCA)”: the “recombinant UMI read abundance (log10)” value worked out at 1.2. The result for “CAAGCGACATGGACCGGTTTTCCCGGTAATCCGTATTTGTG (site CAAGCGTCTCA)” reads 0.756; that for “CAAGCTCCATGGACCGGTTTTCCCGGTAATCCGTATTTGTG (site CAAGCACCTCA)”, 0.0218; that for “CAAGCTCCATGGACCGGTTTTCCCGGTAATCCGTATTTGTG (site CAAGCCCCTCA)”, 0.0101.

For the sequence “CAAGCTCCATGGACCGGTTTTCCCGGTAATCCGTATTTGTG (site CAAGCGCCTCA)”, the “recombinant UMI read abundance (log10)” value is 0.0257. As to “CAAGCTCCATGGACCGGTTTTCCCGGTAATCCGTATTTGTG (site CAAGCTCCTCA)”, the “recombinant UMI read abundance (log10)” value was 0.0252. Take “CAAGGCCCATGGACCGGTTTTCCCGGTAATCCGTATTTGGC (site CAAGGCCCTGC)”: the “recombinant UMI read abundance (log10)” value is 2.11. With “CAAGGTGCATGGACCGGTTTTCCCGGTAATCCGTATTTGTT (site CAAGGTGCTAA)”, the “recombinant UMI read abundance (log10)” value worked out at 2.59. Turning to “CAAGTAACATGGACCGGTTTTCCCGGTAATCCGTATTTGAC (site CAAGTAACTGT)”, the “recombinant UMI read abundance (log10)” value turned out to be 3.09. Regarding “CAAGTAACATGGACCGGTTTTCCCGGTAATCCGTATTTGAC (site CTAGTATCTGT)”, the “recombinant UMI read abundance (log10)” value was 0.497. Then “CAAGTATCATGGACCGGTTTTCCCGGTAATCCGTATTTGTC (site CAAGTATCTGA)”, with 2.66. For “CAAGTATCATGGACCGGTTTTCCCGGTAATCCGTATTTGTC (site CTAGTATCTGT)”, the “recombinant UMI read abundance (log10)” value is 0. Then “CAAGTCACATGGACCGGTTTTCCCGGTAATCCGTATTTGGC (site CAAGTCACTAC)”, with 0.739; and “CAAGTCACATGGACCGGTTTTCCCGGTAATCCGTATTTGGC (site CAAGTCACTCC)”, with 0.402. For “CAAGTCACATGGACCGGTTTTCCCGGTAATCCGTATTTGGC (site CAAGTCACTGC)”, the “recombinant UMI read abundance (log10)” value amounted to 2.99. For the sequence “CAAGTCACATGGACCGGTTTTCCCGGTAATCCGTATTTGGC (site CAAGTCACTTC)”, the “recombinant UMI read abundance (log10)” value stood at 0.596. Consider “CAAGTCTCATGGACCGGTTTTCCCGGTAATCCGTATTTGAC (site CAAGTCTCTGT)”, for which the “recombinant UMI read abundance (log10)” value was 3.08. As to “CAAGTCTCATGGACCGGTTTTCCCGGTAATCCGTATTTGAC (site CTAGTATCTGT)”, the “recombinant UMI read abundance (log10)” value came to 0.00697. As to “CAATCAACATGGACCGGTTTTCCCGGTAATCCGTATTTGTG (site CAATCAACTCA)”, the “recombinant UMI read abundance (log10)” value was 0.737. Regarding “CAATCCCCATGGACCGGTTTTCCCGGTAATCCGTATTTGCT (site CAATACCCTAG)”, the “recombinant UMI read abundance (log10)” value came out at 1.5.

As to “CAATCCCCATGGACCGGTTTTCCCGGTAATCCGTATTTGCT (site CAATCCCCTAG)”, the “recombinant UMI read abundance (log10)” value turned out to be 0.977.

Consider “CAATCCCCATGGACCGGTTTTCCCGGTAATCCGTATTTGCT (site CAATGCCCTAG)”, for which the “recombinant UMI read abundance (log10)” value came to 0. Turning to “CAATCCCCATGGACCGGTTTTCCCGGTAATCCGTATTTGCT (site CAATTCCCTAG)”, the “recombinant UMI read abundance (log10)” value came out at 1.78. Then “CAATCGCCATGGACCGGTTTTCCCGGTAATCCGTATTTGTG (site CAAACGCCTCA)”, with 0.0185. Then “CAATCGCCATGGACCGGTTTTCCCGGTAATCCGTATTTGTG (site CAACCGCCTCA)”, with 0.0282; and “CAATCGCCATGGACCGGTTTTCCCGGTAATCCGTATTTGTG (site CAAGCGCCTCA)”, with 0.0173. In the case of “CAATCGCCATGGACCGGTTTTCCCGGTAATCCGTATTTGTG (site CAATCGCCTCA)”, the “recombinant UMI read abundance (log10)” value amounted to 0.22. Take “CAATCGTCATGGACCGGTTTTCCCGGTAATCCGTATTTGCT (site CAATCGTCTAG)”: the “recombinant UMI read abundance (log10)” value stood at 2.84. Take “CAATCGTCATGGACCGGTTTTCCCGGTAATCCGTATTTGCT (site CGATCATCTAG)”: the “recombinant UMI read abundance (log10)” value is 0. For the sequence “CAATCTACATGGACCGGTTTTCCCGGTAATCCGTATTTGTC (site CAATCTACTGA)”, the “recombinant UMI read abundance (log10)” value amounted to 2.28. As for “CAATGGCCATGGACCGGTTTTCCCGGTAATCCGTATTTGCA (site AAATGGCCTTG)”, the “recombinant UMI read abundance (log10)” value was found to be 0. Take “CAATGGCCATGGACCGGTTTTCCCGGTAATCCGTATTTGCA (site CAATGGCCTTG)”: the “recombinant UMI read abundance (log10)” value was determined as 0.253. Consider “CAATGGCCATGGACCGGTTTTCCCGGTAATCCGTATTTGCA (site GAATGGCCTTG)”, for which the “recombinant UMI read abundance (log10)” value worked out at 0. With “CAATGGCCATGGACCGGTTTTCCCGGTAATCCGTATTTGCA (site TAATGGCCTTG)”, the “recombinant UMI read abundance (log10)” value came out at 0.198.

As for “CAATTACCATGGACCGGTTTTCCCGGTAATCCGTATTTGCT (site CAATTACCTAG)”, the “recombinant UMI read abundance (log10)” value is 0.

As to “CAATTACCATGGACCGGTTTTCCCGGTAATCCGTATTTGCT (site CAATTCCCTAG)”, the “recombinant UMI read abundance (log10)” value worked out at 0. Regarding “CAATTACCATGGACCGGTTTTCCCGGTAATCCGTATTTGCT (site CAATTGCCTAG)”, the “recombinant UMI read abundance (log10)” value was found to be 0.

Consider “CAATTACCATGGACCGGTTTTCCCGGTAATCCGTATTTGCT (site CAATTTCCTAG)”, for which the “recombinant UMI read abundance (log10)” value was 0. In the case of “CAATTCCCATGGACCGGTTTTCCCGGTAATCCGTATTTGTT (site CAATTCCCTAA)”, the “recombinant UMI read abundance (log10)” value turned out to be 1.71.

Consider “CAATTCCCATGGACCGGTTTTCCCGGTAATCCGTATTTGTT (site CAATTCCCTAC)”, for which the “recombinant UMI read abundance (log10)” value came out at 0.942.

On to “CAATTCCCATGGACCGGTTTTCCCGGTAATCCGTATTTGTT (site CAATTCCCTAG)”, for which the “recombinant UMI read abundance (log10)” value was found to be 1.41.

“CAATTCCCATGGACCGGTTTTCCCGGTAATCCGTATTTGTT (site CAATTCCCTAT)”: the “recombinant UMI read abundance (log10)” value is 1.15. As to “CAATTGACATGGACCGGTTTTCCCGGTAATCCGTATTTGCG (site CAATTGACTCG)”, the “recombinant UMI read abundance (log10)” value was 2.58.

For “CAATTGGCATGGACCGGTTTTCCCGGTAATCCGTATTTGGA (site CAATTGGCTTC)”, the “recombinant UMI read abundance (log10)” value was 0.902. Turning to “CAATTGGCATGGACCGGTTTTCCCGGTAATCCGTATTTGGA (site CACTTGGCTTC)”, the “recombinant UMI read abundance (log10)” value stood at 0.0126. For the sequence “CAATTGGCATGGACCGGTTTTCCCGGTAATCCGTATTTGGA (site CAGTTGGCTTC)”, the “recombinant UMI read abundance (log10)” value was 0.585. For the sequence “CAATTGGCATGGACCGGTTTTCCCGGTAATCCGTATTTGGA (site CATTTGGCTTC)”, the “recombinant UMI read abundance (log10)” value was found to be 0.313. As to “CACACAACATGGACCGGTTTTCCCGGTAATCCGTATTTGAA (site CACACAACTTT)”, the “recombinant UMI read abundance (log10)” value was determined as 1.84.

“CACACGGCATGGACCGGTTTTCCCGGTAATCCGTATTTGAG (site CACACGGCTCT)”: the “recombinant UMI read abundance (log10)” value is 1.83. Take “CACAGGGCATGGACCGGTTTTCCCGGTAATCCGTATTTGAG (site CACAGGGCTCT)”: the “recombinant UMI read abundance (log10)” value worked out at 1.97. For the sequence “CACATATCATGGACCGGTTTTCCCGGTAATCCGTATTTGTC (site CACATATCTGA)”, the “recombinant UMI read abundance (log10)” value is 1.5. With “CACATATCATGGACCGGTTTTCCCGGTAATCCGTATTTGTC (site CCCATATCTGA)”, the “recombinant UMI read abundance (log10)” value turned out to be 0.724. In the case of “CACATATCATGGACCGGTTTTCCCGGTAATCCGTATTTGTC (site CGCATATCTGA)”, the “recombinant UMI read abundance (log10)” value turned out to be 0.92.
